From ChEMBL document CHEMBL6134863, “Novel Mitochondria-Targeted Asymmetric Heptamethine Cyanine Dye for Cancer Targeted NIR Imaging and Potent Necrosis and Senescence Induction with Prolonged Retention” (J Med Chem, 2025)
Blank lines part the entries; values can stand above or below the molecule they belong to. The source made the active and inactive calls. The calls are words filed in the database; no cut-off is given here.

What was measured:
[1] = Drug uptake in human NCI-H226 cells assessed as increase in green fluorescence intensity at 5 uM incubated for 30 mins by F-actin staining staining based microscopic analysis; type: ADME, cell-based; details: nci-h226, 0.5 h
[2] = Antioxidant activity of compound in presence of HSO3-; type: functional
[3] = Antioxidant activity of compound in presence of TBHP; type: functional
[4] = Antioxidant activity of compound in presence of SO4; type: functional
[5] = Drug uptake in human NCI-H226 cells assessed as increase in fluorescence intensity incubated for 24 hrs by fluorescence based microscopic analysis; type: ADME, cell-based; details: nci-h226, 24 h
[6] = Antioxidant activity of compound in presence of RNS; type: functional
NCI-H250 = experiment: Antitumor activity against human […] cells xenografted in BALB/c mouse assessed as tumor growth inhibition 0.5 mg/kg, iv measured for 5 days; type: functional, organism-based; details: time 5.0 day
[7] = Antioxidant activity of compound in presence of Ca2+; type: functional
[8] = Drug uptake in human NCI-H226 cells assessed as increase in red fluorescence intensity at 5 uM incubated for 30 mins by CY7 staining based microscopic analysis; type: ADME, cell-based; details: nci-h226, 0.5 h
[9] = Drug uptake in mouse 4T1 cells assessed as increase in red fluorescence intensity at 5 uM incubated for 30 mins by CY7 staining based microscopic analysis; type: ADME, cell-based; details: 4t1, 0.5 h
[10] = Photostability of compound in DMSO-H2O incubated for 1 hr irradiated with deuterium lamp by absorbance based analysis; type: physicochemical; details: read-out: Stability
[11] = Solubility of compound in DMSO-H2O; type: physicochemical
[12] = Antioxidant activity of compound in presence of ClO-; type: functional
[13] = Partition coefficient, logP of compound; type: physicochemical; details: octanol/water
[14] = Antioxidant activity of compound in presence of Br-; type: functional
[15] = Antioxidant activity of compound in presence of Glutathione; type: functional
[16] = Antioxidant activity of compound in presence of CO3; type: functional
[17] = Antioxidant activity of compound in presence of Fe3+; type: functional
[18] = Antioxidant activity of compound in presence of HCO3-; type: functional
[19] = Cytotoxicity against human Primary lung fibroblast assessed as decrease in cell viability up to 10 uM incubated for 24 hrs by CCK-8 assay; type: toxicity, cell-based
[20] = Antioxidant activity of compound in presence of ONOO-; type: functional
[21] = Antioxidant activity of compound in presence of […]; type: functional
NCI-H226 = experiment: Cytotoxicity against human NCI-H226 assessed as decrease in cell viability up to 10 uM incubated for 24 hrs by CCK-8 assay; type: functional, cell-based
[22] = Antioxidant activity of compound in presence of NH4+; type: functional
[23] = Drug localization in mitochondria of human NCI-H226 cell by MitoTracker Red based NIR confocal microscopic analysis; type: ADME
[24] = Antioxidant activity of compound in presence of H2O2-; type: functional
[25] = Drug uptake in mouse 4T1 cells assessed as increase in green fluorescence intensity at 5 uM incubated for 30 mins by F-actin staining staining based microscopic analysis; type: ADME, cell-based; details: 4t1, 0.5 h
[26] = Drug accumulation in BALB/c mouse tumor xenografted with human NCI-H520 cells assessed as increase in fluorescence intensity at 0.5 mg/kg, iv measured at 96 hrs by imaging based analysis; type: ADME, organism-based, Neoplasm; details: in vivo
NIH3T3 = experiment: Cytotoxicity against mouse 3T3 cells assessed as decrease in cell viability up to 5 uM incubated for 24 hrs by CCK-8 assay; type: toxicity, cell-based; details: nih3t3, 24 h
[27] = Cytotoxicity against human Primary lung fibroblast assessed as decrease in cell viability up to 5 uM incubated for 24 hrs by CCK-8 assay; type: toxicity, cell-based
[28] = Stability of compound in DMSO-H2O incubated for 150 mins by absorbance based analysis; type: physicochemical; details: 2.5 h
[29] = Antioxidant activity of compound in presence of L-Cysteine; type: functional
[30] = Antioxidant activity of compound in presence of NO2; type: functional
[31] = Antioxidant activity of compound in presence of ROS; type: functional
[32] = Antioxidant activity of compound in presence of HCHO; type: functional
[33] = Antioxidant activity of compound in presence of Cl-; type: functional
[34] = Antioxidant activity of compound in presence of OH; type: functional
[35] = Drug accumulation in tumor to muscle of BALB/c mouse implanted with mouse 4T1 cells at 0.5 mg/kg, iv measured at 4 to 168 hrs; type: ADME, organism-based; details: in vivo, time 4-168 hrs
[36] = Distribution coefficient, logD of compound; type: physicochemical; details: octanol/water
[37] = Ratio of drug level in tumor to muscle of BALB/c mouse implanted with mouse 4T1 cells at 0.5 mg/kg, iv measured at 12 to 24 hrs; type: ADME, organism-based; details: in vivo, time 12-24 hrs
[38] = Antioxidant activity of compound in presence of RSS; type: functional
[39] = Stability of compound in DMSO-H2O incubated for 1 hr by absorbance based analysis; type: physicochemical
4T1 = experiment: Antitumor activity against mouse 4T1 cells implanted in BALB/c mouse assessed as tumor growth inhibition 5 mg/kg, iv measured for 11 days; type: functional; details: 4T1, 264 h, time 11 day, read-out: TGI
[40] = Drug accumulation in BALB/c mouse tumor implanted with mouse 4T1 cells assessed as increase in fluorescence intensity at 0.5 mg/kg, iv measured at 48 hrs by imaging based analysis; type: ADME, organism-based, Neoplasm; details: in vivo
[41] = Toxicity in BALB/c mouse implanted with mouse 4T1 cells assessed as survival rate at 5 mg/kg, iv measured for 11 days; type: organism-based; details: in vivo, time 11 day

SMILES: COC(=O)CCC(=O)CNC(=O)c1ccc(CN2/C(=C/C=C3\CCCC(/C=C/C4=[N+](Cc5ccc(C(=O)NCC(=O)CCC(=O)OC)cc5)c5ccccc5C4(C)C)=C3Cl)C(C)(C)c3ccccc32)cc1.[Br-]
Drug uptake [1]: Active
Drug uptake [8]: Active
Drug uptake [9]: Active
logP [13]: 6.17
Drug uptake [25]: Active
Drug uptake [35]: Active
logD [36]: 4.48
Ratio [37]: > 5

SMILES: CCN1/C(=C/C=C2\CCCC(/C=C/C3=[N+](CCCOc4ccc(C(=O)O)cc4)c4ccccc4C3(C)C)=C2Cl)C(C)(C)c2ccccc21.[Br-]
Drug uptake [1]: Active
Activity [2]: Active
Activity [3]: Active
Activity [4]: Active
Drug uptake [5]: Active
Activity [6]: Active
TGI (NCI-H250): Active
Activity [7]: Active
Drug uptake [8]: Active
Drug uptake [9]: Active
remaining at 1 h [10]: 96.9%
Stability [39]: Stable
inhibition in vivo at 5 mg/kg (4T1): ~60%
solubility [11]: 170 µg/mL
Activity [12]: Active
logP [13]: 6.05
Activity [14]: Active
Activity [15]: Active
Activity [16]: Active
Drug uptake [40]: Active
Activity [17]: Active
Activity [18]: Active
Activity [19]: Non-toxic
Activity [20]: Active
Activity [21]: Active
Activity (NCI-H226): Active
Activity [22]: Active
Drug uptake [23]: Active
Activity [24]: Active
Drug uptake [25]: Active
Drug uptake [26]: Active
Activity (NIH3T3): > 80%
survival at 264 h [41]: 100%
Activity [27]: Non-toxic
Stability [28]: Stable
Activity [29]: Active
Activity [30]: Active
Activity [31]: Active
Activity [32]: Active
Activity [33]: Active
Activity [34]: Active
Drug uptake [35]: Active
logD [36]: 4.34
Ratio [37]: > 5
Activity [38]: Active

SMILES: CC1(C)C(/C=C/C=C/C=C/C=C2\N(CCCCS(=O)(=O)O)c3ccc4ccccc4c3C2(C)C)=[N+](CCCCS(=O)(=O)[O-])c2ccc3ccccc3c21 [INDOCYANINE GREEN]
remaining at 1 h [10]: 95.2%
Activity (NCI-H226): Active

The next lines start with results.

Drug uptake [1]: Not_active
Drug uptake [5]: Active
Drug uptake [8]: Not_active
Drug uptake [9]: Not_active
remaining at 1 h [10]: 89.4%
solubility [11]: 170 µg/mL
logP [13]: 6.21
Drug uptake [23]: Active
Drug uptake [25]: Not_active
Drug uptake [26]: Active
Stability [28]: Stable
Drug uptake [35]: Active
logD [36]: 4.63
Ratio [37]: > 5
SMILES: CCCN1/C(=C/C=C2\CCCC(/C=C/C3=[N+](CCCOc4ccc(C(=O)O)cc4)c4ccccc4C3(C)C)=C2Cl)C(C)(C)c2ccccc21.[Br-]
Activity [2]: Active
Activity [3]: Active
Activity [4]: Active
Activity [6]: Active
TGI (NCI-H250): Active
Activity [7]: Active
Activity [12]: Active
Activity [14]: Active
Activity [15]: Active
Activity [16]: Active
Activity [17]: Active
Activity [18]: Active
Activity [19]: Non-toxic
Activity [20]: Active
Activity [21]: Active
Activity (NCI-H226): Active
Activity [22]: Active
Activity [24]: Active
Activity (NIH3T3): > 80%
Activity [27]: Non-toxic
Activity [29]: Active
Activity [30]: Active
Activity [31]: Active
Activity [32]: Active
Activity [33]: Active
Activity [34]: Active
Activity [38]: Active

Drug uptake [1]: Active
Drug uptake [8]: Active
Drug uptake [9]: Active
logP [13]: 6.18
Drug uptake [25]: Active
Drug uptake [35]: Active
logD [36]: 4.3
Ratio [37]: > 5
SMILES: COC(=O)CNC(=O)c1ccc(OCCC[N+]2=C(/C=C/C3=C(Cl)C(=C/C=C4/N(Cc5ccc(C(=O)O)cc5)c5ccccc5C4(C)C)/CCC3)C(C)(C)c3ccccc32)cc1.[Br-]

Drug uptake [1]: Active
Drug uptake [8]: Active
Drug uptake [9]: Active
solubility [11]: 170 µg/mL
logP [13]: 5.9
Drug uptake [25]: Active
Drug uptake [35]: Active
logD [36]: 4.23
Ratio [37]: > 5
SMILES: CC1(C)C(/C=C/C2=C(Cl)C(=C/C=C3/N(CCCCCC(=O)O)c4ccccc4C3(C)C)/CCC2)=[N+](CCCOc2ccc(C(=O)O)cc2)c2ccccc21.[Br-]
